# Assay results published in PubChem BioAssay (NCI).
#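 All cell lines were grown in 96-well plates and treated with compound for 48 hours. TGI: concentration producing complete growth inhibition.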 Where a SMILES comes first, the peptide text is derived from it.
# Assays:
# Assay in all cases: growth of human tumour cells (NCI), 48 h
# PC-3 prostate = tested on: PC-3 prostate
# LOX IMVI melanoma = tested on: LOX IMVI melanoma
# MDA-MB-435 = tested on: MDA-MB-435
# KM12 colon = tested on: KM12 colon
# T-47D breast = tested on: T-47D breast
# HL-60(TB) leukemia = tested on: HL-60(TB) leukemia
# HCT-116 colon = tested on: HCT-116 colon
# DU-145 prostate = tested on: DU-145 prostate
# COLO 205 colon = tested on: COLO 205 colon
# OVCAR-3 ovarian = tested on: OVCAR-3 ovarian
# CAKI-1 renal = tested on: CAKI-1 renal
# SK-MEL-2 melanoma = tested on: SK-MEL-2 melanoma
# UACC-257 melanoma = tested on: UACC-257 melanoma
# RXF 393 renal = tested on: RXF 393 renal
# IGROV1 ovarian = tested on: IGROV1 ovarian
# SW-620 colon = tested on: SW-620 colon
# MDA-MB-231 breast = tested on: MDA-MB-231 breast
# A549 NSCLC = tested on: A549 NSCLC
# HT29 colon = tested on: HT29 colon
# NCI-H522 lung = tested on: NCI-H522 lung
SMILES,TGI (PC-3 prostate) [µM],TGI (LOX IMVI melanoma) [µM],TGI (MDA-MB-435) [µM],TGI (KM12 colon) [µM],TGI (T-47D breast) [µM],TGI (HL-60(TB) leukemia) [µM],TGI (HCT-116 colon) [µM],TGI (DU-145 prostate) [µM],TGI (COLO 205 colon) [µM],TGI (OVCAR-3 ovarian) [µM],TGI (CAKI-1 renal) [µM],TGI (SK-MEL-2 melanoma) [µM],TGI (UACC-257 melanoma) [µM],TGI (RXF 393 renal) [µM],TGI (IGROV1 ovarian) [µM],TGI (SW-620 colon) [µM],TGI (MDA-MB-231 breast) [µM],TGI (A549 NSCLC) [µM],TGI (HT29 colon) [µM],TGI (NCI-H522 lung) [µM]
Clc1ccc(C2=C(c3ccccc3)C(c3ccc(Cl)cc3)N3C(=N[C@H]4CCCC[C@@H]43)N2)cc1 (stereo partly drawn),21.8,25.4,27.6,23.5,31.4,10.9,14.7,25.9,19.4,26.7,30.1,29.9,32.2,27.6,26.6,20.6,29.8,24.4,11.7,–
NC(=O)CCC(CCC(N)=O)(CCC(N)=O)[N+](=O)[O-],> 100,–,> 100,> 100,> 100,> 100,> 100,> 100,> 100,–,> 100,> 100,> 100,> 100,> 100,> 100,> 100,> 100,> 100,> 100
C[C@]12CC[C@H]3[C@@H](CCC4=CC(=O)CC[C@@]43C)[C@@H]1CC[C@@H]2C(=O)Nc1ccc([N+](=O)[O-])c(C(F)(F)F)c1,40,30.5,32.3,36.4,37.8,> 100,32.2,42.3,36.7,60,35.9,33.2,> 10,–,43.7,37.6,43.4,37.1,32.1,37.2
O=[N+]([O-])C(=C(N1CCCCC1)N1CCCCC1)/C(Cl)=C(\Cl)[N+](=O)[O-],30,5.13,19.3,41.7,3.88,–,7.54,7.72,11.5,10.7,2.83,35.1,15.5,2.94,3.29,28.7,14.8,42.4,12.5,3.37
CC1OC(OC2C(CO)OC(O[C@H]3CC[C@@]4(C)C(=CC[C@H]5[C@@H]6C[C@@H]7O[C@](O)(CC[C@H](CO)COC8OC(CO)C(O)C(O)C8O)[C@@H](C)[C@@H]7[C@@]6(C)CC[C@@H]54)C3)C(OC3OC(C)C(O)C(O)C3O)C2O)C(O)C(O)C1O (stereo partly drawn),> 100,> 100,> 100,> 100,> 100,–,> 100,> 100,> 100,> 100,> 100,> 100,> 100,> 100,> 100,> 100,> 100,> 100,> 100,> 100
CNC(=O)C1CCCN1C(=O)C(Cc1cnc[nH]1)NC(=O)C1CCC(=O)N1 (stereo not drawn),> 100,> 100,> 100,> 100,> 100,> 100,> 100,> 100,> 100,> 100,> 100,–,–,> 100,> 100,> 100,> 100,> 100,> 100,> 100
O=[N+]([O-])c1ccc(N/N=C(\c2ccccc2)c2ccccn2)nc1,> 44.7,–,> 95.3,> 45.8,26.9,31.7,29.8,36.8,> 60,23.3,29.1,> 94.9,29.8,31.8,20.5,> 77.1,61.7,24.2,> 100,12.7
CN(C)C(=S)N/N=C(\C(=N/NC(=S)N(C)C)c1ccccn1)c1ccccn1,24.4,> 100,26,33.6,8.79,–,25.1,10.8,24.2,14.6,34.1,36.7,50,18.1,27.1,29.9,43.1,27.3,17.6,9.26
C/C=C1/CN2CCC34c5ccccc5N(C)C23C2CC1C4(C(=O)OC)C(O)O2 (stereo not drawn),> 100,> 100,> 100,> 100,> 100,> 100,> 100,> 100,> 100,> 100,> 100,> 100,> 100,–,> 100,> 100,> 100,> 100,> 100,> 100
Nc1ncnc2c1ncn2C1C=CC(COS(N)(=O)=O)C1 (stereo not drawn),> 100,37.6,> 100,> 100,> 100,30.1,> 100,> 100,> 100,> 100,57.6,> 100,> 100,> 100,> 100,> 100,> 100,> 100,> 100,–
Cc1coc2c1C(=O)C(=O)c1c-2ccc2c1CCCC2(C)C,> 44.7,1.9,2.88,> 92.3,> 100,–,4.27,9.9,22.5,1.47,5.15,6.94,2.37,> 100,29.7,12.5,> 100,11.9,42.4,3.98
CC1=CC(=O)C(=CN2C(=O)/C(=C\c3cccnc3)NC2=S)C(=O)O1,> 100,> 100,> 100,> 100,> 100,> 100,> 100,> 100,> 100,> 100,> 100,> 100,> 100,–,> 100,> 100,> 100,> 100,> 100,–
O=c1c2cc(-c3ccccc3)cnc2sn1-c1ccc(Oc2ccccc2)cc1,52.1,–,> 100,> 100,> 100,> 100,> 100,> 100,> 100,> 100,> 100,> 100,> 100,44.6,> 100,> 100,34.9,53.2,47.6,> 100
CC(=O)C1=C(C)N2C(=NC3=C(CCc4ccccc43)C2c2cccc(Br)c2)S1 (stereo not drawn),> 100,> 100,> 100,> 100,> 100,> 100,> 100,> 100,> 100,> 100,–,> 100,> 100,> 100,> 100,> 100,> 100,> 100,> 100,–
CCC12CC(c3ccccc3)C(C(=O)N1)C(=O)N2 (stereo not drawn),> 100,–,> 100,> 100,> 100,> 100,> 100,> 100,> 100,> 100,> 100,> 100,> 100,> 100,> 100,> 100,> 100,> 100,> 100,> 100
CC(CO)(CBr)COC(=O)c1cc(Br)c(N)c(Br)c1 (stereo not drawn),> 100,> 100,> 100,> 100,> 100,> 100,> 100,> 100,> 100,> 100,> 100,> 100,> 100,–,> 100,> 100,> 100,> 100,> 100,–
COCCN(CCOC)C(=O)COc1c2cc(C(C)(C)C)cc1Cc1cc(C(C)(C)C)cc(c1OCC(=O)N(CCOC)CCOC)Cc1cc(C(C)(C)C)cc(c1OCC(=O)N(CCOC)CCOC)Cc1cc(C(C)(C)C)cc(c1OCC(=O)N(CCOC)CCOC)Cc1cc(C(C)(C)C)cc(c1OCC(=O)N(CCOC)CCOC)C2,3.48,8.92,10.7,11.1,19.5,–,3.78,11.1,1.96,10.2,–,3.19,6.58,4.03,10.1,11.9,5.06,11.3,8.13,6.9
CC1=CC(=O)[C@@H](O)[C@]2(C)[C@H]3[C@@]4(O)OC[C@@]35[C@@H](C[C@@H]12)OC(=O)C(OC(=O)CC1=CCCC1)[C@H]5[C@@H](C)[C@H]4O (stereo partly drawn),0.733,0.0653,0.443,0.166,> 23.2,0.237,1.42,4.66,0.724,–,1.63,0.237,0.217,0.234,0.112,> 29.5,0.372,8.99,0.203,0.0733
O=P(c1ccccc1)(c1ccccc1)c1ccc2c(c1)OCCOCCOCCOCCO2,> 100,> 100,> 100,> 100,> 100,> 100,> 100,> 100,> 100,–,> 100,–,–,–,> 100,> 100,> 100,> 100,–,> 100
CCC(CCN)(CCN)[N+](=O)[O-],> 100,–,> 100,> 100,> 100,> 100,> 100,> 100,> 100,–,> 100,> 100,> 100,> 100,> 100,> 100,> 100,> 100,> 100,> 100
CCOC1(OCC)N=C(N)C2(C#N)C3(C(=O)N(C(C)C)N=C3C)C12C#N (stereo not drawn),> 100,–,> 100,> 100,> 100,> 100,> 100,> 100,> 100,> 100,> 100,> 100,> 100,> 100,> 100,> 100,> 100,> 100,> 100,> 100
CNC(=O)CNC(=O)C(NC(=O)CNC(=O)C1CCCN1C(=O)C(C)NC(=O)C(NC(C)=O)C(C)C)C(C)C (stereo not drawn) (Ac-VAPGVG-NHMe; configuration not given here),> 100,> 100,> 100,–,> 100,> 100,> 100,> 100,> 100,> 100,> 100,> 100,> 100,–,> 100,> 100,> 100,–,> 100,> 100
C/C(=N\Nc1nc2ccccc2s1)c1cnccn1,> 67.4,–,> 100,15.2,> 100,–,> 36.8,> 100,> 36.9,17.4,> 42.2,49.9,> 100,40.7,7.28,> 100,> 88.1,> 65.5,2.81,2.92
